Experiments:
Type in all cases: in vivo, human
[1] = system: patients with mild to moderate aortic stenosis; test: Clinical follow up (vital signs, symptoms) in ramipril pilot study; settings: for HR sitting / HR supine: in bpm (unit assumed); for DBP supine / SBP supine: in mmHg
Description: (§1) Clinical Protocol: This pilot study enrolled 8 patients with mild to moderate aortic stenosis, normal left ventricular (LV) function and no history of coronary artery disease. […] Patients then were placed on the ACE inhibitor ramipril, 2.5 mg qd for 2 weeks followed by up-titration at 2 week intervals to 2.5 mg bid, 5 mg bid and 7.5 mg bid. The study lasted 8 weeks. Vital signs were repeated weekly, chemistry panels every 2 weeks and echocardiograms every 4 weeks.

[2] = system: patients with mild to moderate aortic stenosis; test: Lab measures (chemistry panel) in ramipril pilot study
Description: as §1

[3] = system: patients with mild to moderate aortic stenosis; test: Echo measures (echocardiogram) in ramipril pilot study
Description: as §1

[4] = Week 1, ramipril dose 2.5 × 1, n = 8, mean±SD
[5] = Week 1, ramipril dose 2.5 × 1, n = 8
[6] = Week 2, ramipril dose 2.5 × 1, n = 8, mean±SD
[7] = Week 2, ramipril dose 2.5 × 1, n = 8
[8] = Week 3, ramipril dose 2.5 × 2, n = 8, mean±SD
[9] = Week 3, ramipril dose 2.5 × 2, n = 8
[10] = Week 4, ramipril dose 2.5 × 2, n = 8, mean±SD
[11] = Week 4, ramipril dose 2.5 × 2, n = 8
[12] = Week 5, ramipril dose 5 × 2, n = 8, mean±SD
[13] = Week 5, ramipril dose 5 × 2, n = 8
[14] = Week 6, ramipril dose 5 × 2, n = 8, mean±SD
[15] = Week 6, ramipril dose 5 × 2, n = 8
[16] = Week 7, ramipril dose 7.5 × 2, n = 8, mean±SD
[17] = Week 7, ramipril dose 7.5 × 2, n = 8
[18] = Week 8 (final), ramipril dose 7.5 × 2, n = 8, mean±SD
[19] = Week 8 (final), ramipril dose 7.5 × 2, n = 8, mean±SD, listed as Ramipril
[20] = Week 8, ramipril dose 7.5 × 2, n = 8
[21] = count among n = 8, Week 1, ramipril dose 2.5 × 1
[22] = count among n = 8, Week 2, ramipril dose 2.5 × 1
[23] = count among n = 8, Week 3, ramipril dose 2.5 × 2
[24] = count among n = 8, Week 4, ramipril dose 2.5 × 2
[25] = count among n = 8, Week 5, ramipril dose 5 × 2
[26] = count among n = 8, Week 6, ramipril dose 5 × 2
[27] = count among n = 8, Week 7, ramipril dose 7.5 × 2
[28] = count among n = 8, Week 8, ramipril dose 7.5 × 2

CCOC(=O)[C@H](CCc1ccccc1)N[C@@H](C)C(=O)N1[C@H](C(=O)O)C[C@@H]2CCC[C@@H]21 [ramipril]
DBP sitting [1, 4]: 67 ± 9 mmHg
SBP sitting [1, 4]: 109 ± 17 mmHg
HR sitting [1, 5]: 60 ± 9
HR supine [1, 5]: 58 ± 5
DBP supine [1, 5]: 62 ± 5
SBP supine [1, 5]: 106 ± 15
DBP sitting [1, 6]: 65 ± 8 mmHg
SBP sitting [1, 6]: 113 ± 16 mmHg
HR sitting [1, 7]: 61 ± 8
HR supine [1, 7]: 63 ± 6
DBP supine [1, 7]: 60 ± 9
SBP supine [1, 7]: 110 ± 12
DBP sitting [1, 8]: 65 ± 8 mmHg
SBP sitting [1, 8]: 111 ± 15 mmHg
HR sitting [1, 9]: 62 ± 8
HR supine [1, 9]: 62 ± 11
DBP supine [1, 9]: 60 ± 7
SBP supine [1, 9]: 107 ± 14
DBP sitting [1, 10]: 64 ± 5 mmHg
SBP sitting [1, 10]: 112 ± 16 mmHg
HR sitting [1, 11]: 65 ± 7
HR supine [1, 11]: 64 ± 7
DBP supine [1, 11]: 64 ± 8
SBP supine [1, 11]: 111 ± 14
DBP sitting [1, 12]: 67 ± 9 mmHg
SBP sitting [1, 12]: 116 ± 17 mmHg
HR sitting [1, 13]: 62 ± 6
HR supine [1, 13]: 61 ± 7
DBP supine [1, 13]: 69 ± 10
SBP supine [1, 13]: 116 ± 17
DBP sitting [1, 14]: 65 ± 4 mmHg
SBP sitting [1, 14]: 118 ± 20 mmHg
HR sitting [1, 15]: 61 ± 8
HR supine [1, 15]: 61 ± 5
DBP supine [1, 15]: 65 ± 6
SBP supine [1, 15]: 114 ± 20
DBP sitting [1, 16]: 70 ± 10 mmHg
SBP sitting [1, 16]: 121 ± 13 mmHg
HR sitting [1, 17]: 61 ± 4
HR supine [1, 17]: 61 ± 6
DBP supine [1, 17]: 72 ± 6
SBP supine [1, 17]: 121 ± 13
DBP sitting [1, 18]: 65±10 mmHg
SBP sitting [1, 18]: 114±14 mmHg
DBP sitting [1, 19]: 65 ± 10 mmHg
SBP sitting [1, 19]: 114 ± 14 mmHg
HR sitting ([1]; Week 8 (final), ramipril dose 7.5 × 2, n = 8): 62±3
HR sitting ([1]; Week 8 (final), ramipril dose 7.5 × 2, n = 8, listed as Ramipril): 62 ± 3
HR supine [1, 20]: 62 ± 3
DBP supine [1, 20]: 63 ± 6
SBP supine [1, 20]: 120 ± 15
Cough [1, 21]: 0
Ghest pain [1, 21]: 0
Hyper-sensitivity [1, 21]: 0
Light-headedness [1, 21]: 0
Cough [1, 22]: 0
Ghest pain [1, 22]: 0
Hyper-sensitivity [1, 22]: 0
Light-headedness [1, 22]: 0
Cough [1, 23]: 0
Ghest pain [1, 23]: 0
Hyper-sensitivity [1, 23]: 0
Light-headedness [1, 23]: 0
Cough [1, 24]: 0
Ghest pain [1, 24]: 0
Hyper-sensitivity [1, 24]: 0
Light-headedness [1, 24]: 0
Cough [1, 25]: 0
Ghest pain [1, 25]: 0
Hyper-sensitivity [1, 25]: 0
Light-headedness [1, 25]: 0
Cough [1, 26]: 2
Ghest pain [1, 26]: 1
Hyper-sensitivity [1, 26]: 0
Light-headedness [1, 26]: 0
Cough [1, 27]: 0
Ghest pain [1, 27]: 0
Hyper-sensitivity [1, 27]: 0
Light-headedness [1, 27]: 0
Cough [1, 28]: 1
Ghest pain [1, 28]: 1
Hyper-sensitivity [1, 28]: 0
Light-headedness [1, 28]: 1
Creatinine ([2]; Week 1, n = 8, mean±SD): 1.1 ± 0.3 mg/dL
Glucose ([2]; Week 1, n = 8, mean±SD): 97 ± 29 mg/dL
Potassium ([2]; Week 1, n = 8, mean±SD): 4.3 ± 0.3 mEq/L
Creatinine ([2]; Week 3, n = 8, mean±SD): 1.2 ± 0.4 mg/dL
Glucose ([2]; Week 3, n = 8, mean±SD): 96 ± 15 mg/dL
Potassium ([2]; Week 3, n = 8, mean±SD): 4.4 ± 0.4 mEq/L
Creatinine ([2]; Week 5, n = 8, mean±SD): 1.1 ± 0.3 mg/dL
Glucose ([2]; Week 5, n = 8, mean±SD): 91 ± 18 mg/dL
Potassium ([2]; Week 5, n = 8, mean±SD): 4.3 ± 0.5 mEq/L
Creatinine ([2]; Week 7, n = 8, mean±SD): 1.1 ± 0.3 mg/dL
Glucose ([2]; Week 7, n = 8, mean±SD): 91 ± 19 mg/dL
Potassium ([2]; Week 7, n = 8, mean±SD): 4.4 ± 0.5 mEq/L
Creatinine ([2]; final measurement, mean±SD): 1.1 ± 0.3 mg/dL
Glucose ([2]; final measurement, mean±SD): 91 ± 18 mg/dL
Potassium ([2]; final measurement, mean±SD): 4.3 ± 0.5 mEq/L
AS-Jet (aortic stenosis jet velocity) ([3]; Week4, n = 8, mean±SD): 2.8 ± 0.2 m/sec
Cardiac output ([3]; Week4, n = 8, mean±SD): 5.9 ± 1.5 L/min
LVEF ([3]; Week4, n = 8, mean±SD): 73 ± 4%
LVOT-velocity (left ventricular outflow tract velocity) ([3]; Week4, n = 8, mean±SD): 1.1 ± 0.1 m/sec
AS-Jet (aortic stenosis jet velocity) ([3]; Week8 (final), n = 8, mean±SD): 2.8±0.3 m/sec
Cardiac output ([3]; Week8 (final), n = 8, mean±SD): 5.7 ± 1.4 L/min
LVEF ([3]; Week8 (final), n = 8, mean±SD): 71±7%
LVOT-velocity (left ventricular outflow tract velocity) ([3]; Week8 (final), n = 8, mean±SD): 1.0±0.2 m/sec

From patent publication US20040057955A1, “Methods of inhibition of stenosis and/or sclerosis of the aortic valve” (priority 2003, published 2004)
